From patent US20240182481A1 (Tango Therapeutics, Inc., priority 2021, published 2024) come the findings set out here.

In one test the target is USP1-UAF1 (Homo sapiens, UniProt O94782). Briefly: Ubiquitin Rhodamine assay for USP1-UAF1 activity. In kind it is biochemical. On the procedure: Certain compounds of the disclosure were assessed for USP1-UAF1 activity in a Ubiquitin Rhodamine assay as described in Example 135.
The test system of a further test is monoubiquitinated PCNA. Briefly: AlphaLISA assay measuring monoubiquitinated PCNA in MDA-MB-436. The test is classed as cell-based. The following applies: read-out: Alpha LISA IC50. The text has this:
Table 1 also indicates IC50 values for exemplary compounds in an AlphaLISA assay measuring monoubiquitinated PCNA in a BRCA1 mutant cell line (MDA-MB-436; column 7).

Test [1] concerns MDA-MB-436 (BRCA1 mutant) cell line. Briefly: Viability assay in BRCA1 mutant cell line MDA-MB-436. The test is classed as cell-based. The note with it: BRCA1 mutant MDA-MB-436, read-out: MDA-MB-436 rel IC50. The text has this:
(§1) Table 1 also indicates IC50 values in a viability assay for a non-isogenic pair of BRCA1 mutant (column 5—MDA-MB-436) and BRCA1 WT (column 6—HCC1954) cell lines. These values indicate the effect of treatment with compound on cell survival.

Test [2] concerns HCC1954 (BRCA1 WT) cell line. Briefly: Viability assay in BRCA1 WT cell line HCC1954. The following applies: Homo sapiens, read-out: HCC 1954 IC50 rel IC50. In kind it is cell-based.
Text: as §1

[3] abbreviates: Homo sapiens, MDA-MB-436, viability.

Like-named read-outs stand apart in the source and are kept apart here. A value given as a limit tells only on which side of the number the result lay.

Sequence of USP1-UAF1 (O94782 whole entry): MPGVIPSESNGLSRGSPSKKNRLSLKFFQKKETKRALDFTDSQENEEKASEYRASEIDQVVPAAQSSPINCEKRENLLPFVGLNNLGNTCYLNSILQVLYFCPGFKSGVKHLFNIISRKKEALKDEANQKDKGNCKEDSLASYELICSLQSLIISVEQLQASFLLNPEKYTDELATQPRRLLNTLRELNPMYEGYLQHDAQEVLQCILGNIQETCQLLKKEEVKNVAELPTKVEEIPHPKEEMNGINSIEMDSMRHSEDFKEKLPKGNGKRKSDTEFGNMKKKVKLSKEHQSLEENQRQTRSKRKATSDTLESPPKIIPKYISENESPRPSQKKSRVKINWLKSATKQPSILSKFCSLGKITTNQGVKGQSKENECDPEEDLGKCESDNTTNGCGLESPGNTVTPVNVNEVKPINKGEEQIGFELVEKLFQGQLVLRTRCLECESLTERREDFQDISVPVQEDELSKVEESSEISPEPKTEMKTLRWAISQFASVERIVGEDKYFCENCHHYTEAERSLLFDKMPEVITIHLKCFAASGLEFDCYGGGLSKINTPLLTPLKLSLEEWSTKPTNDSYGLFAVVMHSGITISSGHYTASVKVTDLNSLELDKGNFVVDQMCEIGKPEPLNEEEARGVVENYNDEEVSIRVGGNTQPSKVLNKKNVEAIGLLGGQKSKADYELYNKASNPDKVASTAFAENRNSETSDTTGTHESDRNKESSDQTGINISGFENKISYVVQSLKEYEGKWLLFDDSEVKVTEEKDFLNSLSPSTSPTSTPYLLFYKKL
Sequence of USP1-UAF1 (Q8TAF3 whole entry partner): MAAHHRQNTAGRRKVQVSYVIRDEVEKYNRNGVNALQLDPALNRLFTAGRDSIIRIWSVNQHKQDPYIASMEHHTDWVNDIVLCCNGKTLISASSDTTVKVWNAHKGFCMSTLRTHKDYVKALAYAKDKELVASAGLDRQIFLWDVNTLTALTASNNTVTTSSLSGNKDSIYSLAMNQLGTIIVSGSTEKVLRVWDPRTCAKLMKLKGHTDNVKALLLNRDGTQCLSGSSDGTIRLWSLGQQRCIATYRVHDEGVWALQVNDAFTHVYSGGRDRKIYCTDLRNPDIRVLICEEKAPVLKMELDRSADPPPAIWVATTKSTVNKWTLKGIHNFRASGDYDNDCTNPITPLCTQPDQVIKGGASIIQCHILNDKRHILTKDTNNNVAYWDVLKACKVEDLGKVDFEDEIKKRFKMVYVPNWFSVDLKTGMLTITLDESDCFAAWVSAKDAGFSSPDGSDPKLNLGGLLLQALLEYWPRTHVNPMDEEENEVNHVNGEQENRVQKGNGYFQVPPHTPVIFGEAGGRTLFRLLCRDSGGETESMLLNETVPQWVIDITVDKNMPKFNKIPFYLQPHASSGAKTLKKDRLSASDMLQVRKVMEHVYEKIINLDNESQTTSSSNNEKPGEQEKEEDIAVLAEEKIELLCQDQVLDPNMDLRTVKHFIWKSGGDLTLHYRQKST

Consider `COc1ncnc(C2CC2)c1-c1ncc2c(n1)c(Cc1ccc(-c3nc(C(F)(F)F)cn3C3CC3)cc1)cn2C` [Compound 25], for which the IC50 is under 0.03 µM against USP1-UAF1 and under 0.1 µM with monoubiquitinated PCNA (Homo sapiens).

Take `COc1ncnc(C2CC2)c1-c1ncc2[nH]cc([C@@](C)(O)c3ccc(-c4nc(C(F)(F)F)cn4C)cc3)c2n1` (single isomer, unassigned) [Compound 4]: the values for the IC50 (on USP1-UAF1; in test [1] (viability); in the test on monoubiquitinated PCNA) were 0.03 to 0.1 µM, 0.1 to 0.25 µM and 0.1 to 0.25 µM, respectively.

Turning to `COc1ncnc(C2CC2)c1-c1ncc2[nH]cc(Cc3ccc(-c4nc(C(F)(F)F)cn4C(C)C)cc3)c2n1` [Compound 54, 2-(4-cyclopropyl-6-methoxy-pyrimidin-5-yl)-7-[[4-[1-isopropyl-4-(trifluoromethyl)imidazol-2-yl]phenyl]methyl]-5H-pyrrolo[3,2-d]pyrimidine], the IC50 is under 0.03 µM at USP1-UAF1, under 0.1 µM in test [1] (setting [3]) and under 0.1 µM with monoubiquitinated PCNA (Homo sapiens).

For the compound `Cn1cc(C(F)(F)F)nc1-c1ccc(C(O)c2c[nH]c3cnc(-c4cccnc4C4CC4)nc23)cc1` (centres unmarked) [Compound 40], the results for the IC50 (against USP1-UAF1; in test [1] (setting [3]); in test [2]) were 0.1 to 10 µM, 0.25 to 10 µM and at least 10 µM, respectively.

As for `CN(Cc1ccccc1-c1ncc2[nH]cc(C(O)c3ccc(-c4nc(C(F)(F)F)cn4C)cc3)c2n1)CC(F)(F)F` (centres unmarked) [Compound 42], the IC50 at USP1-UAF1 was 0.1 to 10 µM; in test [1] (setting [3]), 0.25 to 10 µM; in test [2] it was at least 10 µM.

For `Cn1cc(C(F)(F)F)nc1-c1ccc(C(O)c2c[nH]c3cnc(-c4c(C(F)(F)F)cnn4C)nc23)cc1` (centres unmarked) [Compound 108, [4-[1-methyl-4-(trifluoromethyl)imidazol-2-yl]phenyl]-[2-[2-methyl-4-(trifluoromethyl)pyrazol-3-yl]-5H-pyrrolo[3,2-d]pyrimidin-7-yl]methanol], the results for the IC50 (at USP1-UAF1; in test [1] (setting [3]); in test [2]) were 0.1 to 10 µM, 0.25 to 10 µM and at least 10 µM, respectively.

On to `Cn1cc(C(F)(F)F)nc1-c1ccc(Cc2c[nH]c3cnc(-c4cccnc4N4CCC45COC5)nc23)cc1` [Compound 77], for which the IC50 against USP1-UAF1 was 0.1 to 10 µM; in test [1] (setting [3]), 0.25 to 10 µM; in test [2] it was at least 10 µM.

Regarding `CC(C)Nc1ncccc1-c1ncc2[nH]cc(Cc3ccc(-c4nc(C(F)(F)F)cn4C)cc3)c2n1` [Compound 50, N-isopropyl-3-[7-[[4-[1-methyl-4-(trifluoromethyl)imidazol-2-yl]phenyl]methyl]-5H-pyrrolo[3,2-d]pyrimidin-2-yl]pyridin-2-amine], the values for the IC50 (on USP1-UAF1; in test [1] (setting [3]); in test [2]) were 0.1 to 10 µM, 0.25 to 10 µM and 0.25 to 10 µM, respectively.

`CC(C)Oc1ncccc1-c1ncc2[nH]cc(Cc3ccc(-c4nc(C(F)(F)F)cn4C)cc3)c2n1` [Compound 55, 2-isopropoxy-3-[7-([4-[1-methyl-4-(trifluoromethyl)imidazol-2-yl]phenyl]methyl)-5H-pyrrolo[3,2-d]pyrimidin-2-yl]pyridine]: the IC50 at USP1-UAF1 is under 0.03 µM; in test [1] (setting [3]), under 0.1 µM; in test [2], at least 10 µM.

Take `Cn1cc(C(F)(F)F)nc1-c1ccc(Cc2n[nH]c3cnc(-c4c(Cl)ccnc4C4CC4)nc23)cc1` [Compound 156, 5-(4-chloro-2-cyclopropylpyridin-3-yl)-3-(4-(1-methyl-4-(trifluoromethyl)-1H-imidazol-2-yl)benzyl)-1H-pyrazolo[4,3-d]pyrimidine]: the IC50 was under 0.03 µM against USP1-UAF1, under 0.1 µM in test [1] (setting [3]) and at least 10 µM in test [2].

With `Cn1cc(C(F)(F)F)nc1-c1ccc(C(O)c2c[nH]c3cnc(-c4cccnc4C4CC4)cc23)cc1` (centres unmarked) [Compound 30, [5-(2-cyclopropylpyridin-3-yl)-1H-pyrrolo[2,3-c]pyridin-3-yl]([4-[1-methyl-4-(trifluoromethyl)imidazol-2-yl]phenyl])methanol], the IC50 is 0.1 to 10 µM on USP1-UAF1, at least 10 µM in test [1] (setting [3]) and at least 10 µM in test [2].

For `CC(C)n1cc(C(F)(F)F)nc1-c1ccc(C(O)c2c[nH]c3cnc(-c4cccnc4OC(F)F)nc23)cc1` (centres unmarked) [Compound 52, [2-[2-(difluoromethoxy)-3-pyridyl]-5H-pyrrolo[3,2-d]pyrimidin-7-yl]-[4-[1-isopropyl-4-(trifluoromethyl)imidazol-2-yl]phenyl]methanol], the values for the IC50 (against USP1-UAF1; in test [1] (setting [3]); in test [2]) were 0.1 to 10 µM, 0.25 to 10 µM and at least 10 µM, respectively.

On to `COc1ncnc(C2CC2)c1-c1ncc2[nH]cc(C(O)c3ccc(-c4nc(C(F)(F)F)cn4C)cc3)c2n1` (centres unmarked) [Compound 49, [2-(4-cyclopropyl-6-methoxy-pyrimidin-5-yl)-5H-pyrrolo[3,2-d]pyrimidin-7-yl]-[4-[1-methyl-4-(trifluoromethyl)imidazol-2-yl]phenyl]methanol], for which the IC50 was 0.1 to 10 µM on USP1-UAF1, 0.25 to 10 µM in test [1] (setting [3]) and at least 10 µM in test [2].

As for `CN1CC(n2cc(C(F)(F)F)nc2-c2ccc(C(O)c3c[nH]c4cnc(-c5cccnc5OC(F)F)nc34)cc2)C1` (centres unmarked) [Compound 38, [2-[2-(difluoromethoxy)-3-pyridyl]-5H-pyrrolo[3,2-d]pyrimidin-7-yl]-[4-[1-(1-methylazetidin-3-yl)-4-(trifluoromethyl)imidazol-2-yl]phenyl]methanol], the IC50 (against USP1-UAF1; in test [1] (setting [3]); in test [2]) was at least 10 µM each time.

In the case of `Cn1cc(C(F)(F)F)nc1-c1ccc(Cc2c[nH]c3cnc(-c4cccnc4NC4CC4)nc23)cc1` [Compound 44], the IC50 on USP1-UAF1 was 0.1 to 10 µM; in test [1] (setting [3]), 0.25 to 10 µM; in test [2], 0.25 to 10 µM.

With `Cn1cc(C(F)(F)F)nc1-c1ccc(Cc2c[nH]c3cnc(-c4c(OC5CC5)ncnc4C4CC4)nc23)cc1` [Compound 155], the IC50 was under 0.03 µM on USP1-UAF1, under 0.1 µM in test [1] (setting [3]) and at least 10 µM in test [2].

For `CN(C)Cc1ccccc1-c1ncc2[nH]cc(Cc3ccc(-c4nc(C(F)(F)F)cn4C)cc3)c2n1` [Compound 9], the IC50 (against USP1-UAF1; in test [1] (setting [3]); in test [2]) was at least 10 µM each time.

With `COc1ncnc(C2CC2)c1-c1ncc2[nH]cc(C(c3ccc(-c4nc(C(F)(F)F)cn4C)cc3)C(C)C)c2n1` (centres unmarked) [Compound 145], the IC50 lay within 0.03 to 0.1 µM against USP1-UAF1, 0.1 to 0.25 µM in test [1] (setting [3]) and 0.25 to 10 µM in test [2].

As for `CN(C)Cc1ccccc1-c1ncc2[nH]cc(C(O)c3ccc(-c4nc(C(F)(F)F)cn4C)cc3)c2n1` (centres unmarked) [Compound 3], the IC50 (against USP1-UAF1; in test [1] (setting [3]); in test [2]) was at least 10 µM throughout.

For the compound `Cn1cc(C(F)(F)F)nc1-c1ccc(Nc2c[nH]c3cnc(-c4cccnc4C4CC4)nc23)cc1` [Compound 43, 2-(2-cyclopropyl-3-pyridyl)-N-[4-[1-methyl-4-(trifluoromethyl)imidazol-2-yl]phenyl]-5H-pyrrolo[3,2-d]pyrimidin-7-amine], the IC50 at USP1-UAF1 was 0.1 to 10 µM; in test [1] (setting [3]) it was at least 10 µM; in test [2] it was at least 10 µM.

Consider `COc1ncnc(C2CC2)c1-c1ncc2[nH]cc(C(O)c3ccc(-c4nc(C(F)(F)F)cn4C(C)C)cc3)c2n1` (centres unmarked) [Compound 59, [2-(4-cyclopropyl-6-methoxy-pyrimidin-5-yl)-5H-pyrrolo[3,2-d]pyrimidin-7-yl]-[4-[1-isopropyl-4-(trifluoromethyl)imidazol-2-yl]phenyl]methanol], for which the IC50 at USP1-UAF1 lay within 0.1 to 10 µM; in test [1] (setting [3]), 0.25 to 10 µM; in test [2] it was 0.25 to 10 µM.

With `CC(C)c1ccccc1-c1ncc2[nH]cc(CN3CCC(c4nc(C(F)(F)F)cn4C)CC3)c2n1` [Compound 6, 2-(2-isopropylphenyl)-7-[[4-[1-methyl-4-(trifluoromethyl)imidazol-2-yl]-1-piperidyl]methyl]-5H-pyrrolo[3,2-d]pyrimidine], the IC50 was 0.1 to 10 µM at USP1-UAF1, 0.25 to 10 µM in test [1] (setting [3]) and at least 10 µM in test [2].

As to `CN(Cc1ccccc1-c1ncc2[nH]cc(Cc3ccc(-c4nc(C(F)(F)F)cn4C)cc3)c2n1)CC(F)(F)F` [Compound 61], the IC50 on USP1-UAF1 was 0.03 to 0.1 µM; in test [1] (setting [3]) it was 0.25 to 10 µM; in test [2], 0.25 to 10 µM.

With `Cn1cc(C(F)(F)F)nc1-c1ccc(Cc2c[nH]c3cnc(-c4cccnc4N4CCC45CCOC5)nc23)cc1` (centres unmarked) [Compound 32], the values for the IC50 (on USP1-UAF1; in test [1] (setting [3]); in test [2]) were 0.1 to 10 µM, 0.25 to 10 µM and 0.25 to 10 µM, respectively.

In the case of `Cn1cc(C(F)(F)F)nc1-c1ccc(Cc2c[nH]c3cnc(-c4ccccc4CO)nc23)cc1` [Compound 72], the IC50 is 0.1 to 10 µM on USP1-UAF1, 0.25 to 10 µM in test [1] (setting [3]) and at least 10 µM in test [2].

Consider `Cn1cc(C(F)(F)F)nc1-c1ccc(Cc2c[nH]c3cnc(-c4c(OCF)ncnc4C4CC4)nc23)cc1` [Compound 173, 2-[4-cyclopropyl-6-(fluoromethoxy)pyrimidin-5-yl]-7-[[4-[1-methyl-4-(trifluoromethyl)imidazol-2-yl]phenyl]methyl]-5H-pyrrolo[3,2-d]pyrimidine], for which the IC50 is under 0.03 µM against USP1-UAF1, under 0.1 µM in test [1] (setting [3]) and at least 10 µM in test [2].

As to `CCn1c(C(F)(F)F)cnc1-c1ccc(C(O)c2c[nH]c3cnc(-c4c(OC)ncnc4C4CC4)nc23)cc1` (centres unmarked) [Compound 75], the IC50 (against USP1-UAF1; in test [1] (setting [3]); in test [2]) was at least 10 µM in each case.

For the compound `Cn1cc(C(F)(F)F)nc1-c1ccc(C(C)(O)c2c[nH]c3cnc(-c4cccnc4OCC(F)(F)F)nc23)cc1` (single isomer, unassigned) [Compound 22], the IC50 fell in the range of 0.1 to 10 µM at USP1-UAF1, 0.1 to 0.25 µM in test [1] (setting [3]) and 0.25 to 10 µM in test [2].
